Results taken from ChEMBL document CHEMBL3507680, “University of Dundee, Gates Library screen for HepG2 cell viability”.

Test: Human HepG2 cell viability assay in 384 well format
Format: toxicity, cell-based
Parameters: dose 125 nL, time 70.5 hour; concentration not given beside the values
Settings: HepG2 cells, read-out: Inhibition

| SMILES | cytotoxicity at 70.5 h |
| --- | --- |
| CCOc1ccccc1CNC(=O)N(CC)C(C)c1cccnc1 (centres undefined) | -6.76% |
| O=C(NCc1ccco1)[C@@H]1CCO[C@@H]2CCN(c3ccncn3)C[C@H]21 | -2.41% |
| O=C(Nc1ccc(S(=O)(=O)Nc2ccccc2)cc1)N1CCCC1 | -11.6% |
| O=C(Cc1ccon1)N1CCc2cc(Br)sc2C1 | -3.84% |
| CC(C)(C)OC(=O)N1CSC[C@@H]1C(=O)NCc1cccc(C#N)c1 | -0.236% |
| O=C(NCCc1ccc(Cl)cc1)c1coc(CN2CCOCC2)c1 | -5.77% |
| CC(C)N(C)Cc1cnc2n1CCN(Cc1ccco1)C2 | -14% |
| O=C(CCn1cncn1)N1CCC2(CC1)[C@H](O)C[C@@H]2OCCO | 0.165% |
| O=C(c1cnccn1)N1C[C@@H]2CC[C@H](C1)N(C(=O)CCc1ccsc1)C2 | -0.591% |
| COCC(=O)N[C@H](C(=O)NC(C)c1cc(C)ccc1C)C(C)C (some centres undefined) | -0.855% |
| O=C(c1cnc(O)cn1)N(Cc1ccsc1)CC1CCCO1 (centres undefined) | 25.2% |
| Cc1cc(Cl)cc(C)c1CNC1CCN(CC(=O)N(C)C)CC1 | -2.67% |
| Cc1csc(CNCc2c(C)nn(C)c2N2CCOCC2)n1 | -0.213% |
| O=C(c1ccc[nH]1)N1CCc2nnc(Cn3cccn3)n2CC1 | -2.61% |
| CCn1nccc1C(=O)Nc1nc(C)c(C(C)=O)s1 | -5.2% |
| Cc1nccnc1N1Cc2cnn(Cc3ccc(F)cc3)c2C1 | -0.0825% |
| O=C(C1CC1)N1CCN2C[C@H](c3ccccc3)[C@@H](CO)[C@H]2C1 | -5.2% |
| Cc1ccc(S(=O)(=O)N2CCC(Oc3cccnn3)CC2)c(C)c1 | -8.17% |
| Cn1cc(N2CC3(CCN(Cc4ccccc4)CC3)OCC2=O)cn1 | 52.7% |
| CN(CC(=O)NCCC#N)C(c1ccccc1)c1ccccc1 | -14.5% |
| CC(C)C[C@H](N)c1nnc(SCC(=O)Nc2ccc(Br)cc2)o1 | -5.07% |
| COc1ccc(CNC(=O)N2CCc3sccc3C2)cc1O | -10.2% |
| Cc1ccc(CC(=O)N2CCC(Nc3ccc(C)nn3)CC2)cn1 | -1.2% |

| SMILES | cytotoxicity at 70.5 h |
| --- | --- |
| COc1cc(NCc2ncc[nH]2)ccc1Br | -1.95% |
| CC(C)N1CCC2(CCCN(Cc3ccc(F)cc3)C2=O)C1 (centres undefined) | 27.4% |
| CCn1cc(N2Cc3nc(N4CCCC4)ncc3C2=O)cn1 | 0.0553% |
| COc1ccc(-n2cc(CNC(=O)c3ccc[nH]3)nn2)cc1 | -2.18% |
| CC(C)(O)CCc1ccc(C(=O)N2CCN(CC(F)(F)F)CC2)cc1 | 3.68% |
| CCNc1ncc(C(=O)N[C@H]2CC[C@H](n3cnnc3)CC2)cn1 | -1.33% |
| c1cn(-c2cnc(C3CCNCC3)cn2)cn1 | -10.7% |
| O=C(c1cccc2c1OCO2)N1CCCC1c1noc(C2CC2)n1 (centres undefined) | 31.3% |
| COCC(=O)N1CCC2(CC1)CCN(Cc1ccccn1)C2=O | -0.554% |
| CN(C)C(=O)N1CCC2(CC(=O)N(c3ccc4c(c3)OCO4)C2)C1 (centres undefined) | 1.41% |
| Cc1ccc(NC2CCN(C(=O)c3cccc4ncccc34)CC2)nn1 | 1.63% |
| Cc1cc(NC(=O)NC(C)CN2CCN(c3ccccc3)CC2)on1 (centres undefined) | -5.02% |
| CCc1nc(N2CCC3(CCC(=O)N(Cc4ccncc4)C3)CC2)no1 | 10.6% |
| O=C(Cn1c(=O)n(Cc2ccco2)c2ncccc21)NC1CCCCC1 | 38.5% |
| Cc1sc(-c2ccco2)nc1C(=O)N1CCCC1Cn1cccn1 (centres undefined) | -1.73% |
| CC(C)(C)c1nnc(CN2CCn3c(nnc3C3CC3)C2)o1 | -0.488% |
| CCN(Cc1nc(COC)no1)C(=O)CCNC(=O)c1ccccc1F | 22.4% |
| CCNC(=O)N1C[C@@H]2OCC(=O)N(CC3CC3)[C@@H]2C1 | -3.79% |
| COc1cc(C2SCC(=O)Nc3ccsc32)cc(OC)c1OC (centres undefined) | -14.5% |
| O=C(NCC1CCCOC1)c1ccc(-c2cccs2)[nH]c1=O (centres undefined) | 4.28% |
| CCC(C(=O)Nc1ccc2nc(C)oc2c1)N1CCCC1=O (centres undefined) | 20.5% |
| c1nc2c(c(NC3CCc4ncnn4C3)n1)CCC2 (centres undefined) | -8.75% |
| c1cnn(-c2ccc(CN3CCCC(Cn4cncn4)C3)cc2)c1 (centres undefined) | -1.71% |

| SMILES | cytotoxicity at 70.5 h |
| --- | --- |
| CS(=O)(=O)NCCC(=O)Nc1cnn(-c2ccccc2Cl)c1 | -11.9% |
| Cc1nc(NCCCn2cccn2)c2c(n1)c(C)nn2C | -3.99% |
| Cc1cnnn1Cc1nnn2c1CN(Cc1cccs1)CCC2 | -1.92% |
| CN(C)C(=O)C1CN(Cc2ccsc2)Cc2ccnn2C1 (centres undefined) | 12.7% |
| CS(=O)(=O)NC1CCN(C(=O)c2ccc3ccccc3c2)C1 (centres undefined) | 5.82% |
| COCCCC1(CO)CCCN(C(=O)c2cnc3c(c2)CCCC3)C1 (centres undefined) | -6.26% |
| O=C(CNC(=O)c1cc(Cl)ccn1)Nc1nccs1 | -4.32% |
| Cc1cc(C)c(CNC(=O)N2CCCC2c2cc(C)on2)c(=O)[nH]1 (centres undefined) | -7.12% |
| CC(C)C(CNCc1cccc2c1OCO2)N1CCOCC1 (centres undefined) | 3.33% |
| Cc1csc(C2CCCCN2C(=O)c2c[nH]c(C)n2)n1 (centres undefined) | 0.914% |
| Cc1cc(F)c2c(c1)CCCN2C(=O)c1cncc(Br)c1 | 0.703% |
| Cc1cccc(NC(=O)N2CCC3(CC(=O)N(c4ccsc4)C3)C2)c1 (centres undefined) | -5.62% |
| CCCC(=O)NC1CCCN(c2cncc(Br)c2)C1 (centres undefined) | -10.5% |
| O=C(c1ccccc1-n1cnnn1)N1CCC2(CC1)OCCO2 | -1.41% |
| N#Cc1cc2c(nc1SCc1cc(O)nc(O)n1)CCCCC2 | -1.03% |
| NC(=O)C1(c2cnccn2)CCCN1Cc1cc2ccccc2o1 (centres undefined) | -9.2% |
| CCN(CC1CCCO1)S(=O)(=O)c1cc(NC(C)=O)ccc1C (centres undefined) | 6.44% |
| O=C1CC(NCc2cnc(N3CCCC3)nc2)CN1c1ccccc1 (centres undefined) | 1.08% |
| CC(C)C(=O)N1CCCC(c2cncc(Oc3cccnc3)n2)C1 (centres undefined) | -2.17% |
| O=C(Cn1ccc2sccc2c1=O)NCCC1=CCCCC1 | -8.78% |
| COC(=O)c1ccc(CNC(C)c2ccc(S(C)(=O)=O)cc2)cc1 (centres undefined) | -1.14% |
| COC(=O)c1sccc1S(=O)(=O)N1CCC(Oc2cccc(C)n2)CC1 | -9.62% |
| O=C(O)[C@@H]1CCN(C(=O)Cc2ccccn2)[C@@H]1c1ccc(F)cc1 | -7.95% |

| SMILES | cytotoxicity at 70.5 h |
| --- | --- |
| COc1ccc(-c2noc(Cn3cc(C)cn3)n2)c(OC)c1OC | -1.78% |
| CCC1CN(C)c2ccccc2CN1C(=O)CCn1cncn1 (centres undefined) | -7.82% |
| Cn1cccc1C(=O)N1CCCC2(CCCN2S(C)(=O)=O)C1 (centres undefined) | -8.52% |
| COC(=O)CCN(CC1CCCO1)C(=O)CCc1ccc(OC)cc1 (centres undefined) | -7.89% |
| Cc1cnn(CC2CCCN2C(=O)CCc2c(C)nn(C)c2C)c1 (centres undefined) | -18.5% |
| CC(C)CN1C(=O)C2(CCN(Cc3ccc(F)cc3)C2)c2ccccc21 (centres undefined) | -0.325% |
| Cc1cccc(-c2nc(CNC3CCc4nc(C)nn4C3)no2)c1 (centres undefined) | -3.36% |
| NC(=O)N1CC2(CCNCC2)c2cc(Cl)ccc21 | -0.465% |
| CS(=O)(=O)NC1CCCN(Cc2ccccn2)C1 (centres undefined) | -1.75% |
| CC(=O)c1cc(CN2CCCC2c2nc3ccc(C)cc3[nH]2)cs1 (centres undefined) | -3.73% |
| COc1ccc(C(=O)NC2CC2)c(OC2CCN(CC3CC3)CC2)c1 | -2.04% |
| O=C(N[C@@H]1CC[C@@H](N2CCCC2)[C@@H]1O)c1cc2cccc(F)c2[nH]1 | -9.84% |
| Cc1ccc(C)c2c(O)cc(CN3CCNC(=O)C3C)nc12 (centres undefined) | -8.28% |
| COCCNC(=O)c1cc(C)nc(C2CCN(C)CC2)n1 | -3.41% |
| CS(=O)(=O)NC[C@H]1OC[C@@H](NC2CCC(F)(F)CC2)[C@@H]1O | -5.87% |
| COc1cccc(CN2CCc3nc(C(N)=O)sc3CC2)c1 | -7.05% |
| N#Cc1ncn(CCC(=O)Nc2cc(Cl)ccc2Cl)n1 | -4.2% |
| CC(C)CN(Cc1cnn(C)c1)C(=O)C1COc2ccccc2C1 (centres undefined) | 1.15% |
| CN(Cc1cccc(C(N)=O)c1)c1ncc(C#N)cc1Cl | -9.21% |
| CCC(O)Cn1nc(CCSC)nc1-c1ccc2c(c1)OCCO2 (centres undefined) | 15.5% |
| c1ccc(-c2ccc(C3CNCCO3)nc2)cc1 (centres undefined) | -19.9% |
| Cc1ccc([C@]2(O)CC[C@H]3CN(Cc4ccncc4)C[C@H]32)nc1 | 36% |
| CCOc1nnc(CN2CCC(c3cc4ccccc4[nH]3)CC2)s1 | -5.08% |

| SMILES | cytotoxicity at 70.5 h |
| --- | --- |
| O=C(NC1CCCNC1)c1cc(COc2cccc(C(F)(F)F)c2)[nH]n1 (centres undefined) | -0.657% |
| Oc1ccc(N2CCN(Cc3ccc(F)cc3Br)CC2)cc1 | -7.04% |
| CC(C)N(CCO)C(=O)C1CCC(=O)N(CCc2cccc(F)c2)C1 (centres undefined) | -10% |
| c1cnc(N2CCCn3nnc(COCC4CC4)c3C2)nc1 | -1.29% |
| CC1c2cc(F)ccc2CCN1CCCS(=O)(=O)C(C)C (centres undefined) | -2.78% |
| COc1cccc(O[C@H]2CCN(c3nc(C)cc(C)n3)CC[C@@H]2O)c1 | 20.4% |
| Cc1cc(NC(=O)NCC(CC(C)C)N2CCOCC2)n(C)n1 (centres undefined) | 2.74% |
| CCCN(CCC)C(=O)c1cc(CN2CCC(O)CC2)on1 | -6.98% |
| CSCC(C)(O)CNC(=O)c1cc(Cl)ccc1Cl (centres undefined) | -7.98% |
| O=C(Cc1ccc2c(c1)OCCO2)NC1CCCC1 | 10.8% |
| CCn1cc(C(=O)Nc2ccc(C)cc2C(=O)OC)cn1 | 16% |
| CC1(C(=O)NCCN2CCCCC2)CCCN1C(=O)c1ccccc1 (centres undefined) | -3.21% |
| Cc1ccc(CN2C[C@H](N(C)Cc3cncnc3)[C@H]3OCCC[C@H]32)o1 | -10.1% |
| COC(=O)c1ccc(Cn2nc(C)cc2C)c(OC)c1 | 2.29% |
| O=C(NCCN1CCOCC1)NCc1ccccc1-n1cccn1 | -0.678% |
| CCc1cnc(CN(C(C)=O)C2CCN(CCc3cnn(C)c3)C2)o1 (centres undefined) | 2.5% |
| O=C(NCCN1CCCC1)c1cc2c(s1)CCN2c1ncccn1 | -5.02% |
| O=c1cc2c(nn1CN1CCN(c3ccccc3)CC1)CCC2 | -4.25% |
| Cc1ccc(-c2nc(CN3CCc4nn(C)c(=O)cc4C3)no2)cc1 | -15.2% |
| O=C(c1ccccn1)N1CCC2(CC1)COC(COc1cccnc1)C2 (centres undefined) | -7.52% |
| CN(CC(N)=O)S(=O)(=O)c1ccc(F)cc1Cl | -11.4% |
| CC(NC(=O)Cn1cc(C(N)=O)c(-c2ccccc2)n1)C1CC1 (centres undefined) | -10% |
